Source: PubChem BioAssay (NCI)
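Five compound concentrations were applied to cells in 96-well plates for 48 hours; endpoints were derived by simple linear interpolation of the resulting dose-response curve. TGI: concentration producing complete growth inhibition.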

What was measured:
Experiment in all cases: NCI tumour cell line growth inhibition, 48 h
COLO 205 colon = test system: COLO 205 colon
DU-145 prostate = test system: DU-145 prostate
HCT-15 colon = test system: HCT-15 colon
LOX IMVI melanoma = test system: LOX IMVI melanoma
SK-MEL-28 melanoma = test system: SK-MEL-28 melanoma
UACC-62 melanoma = test system: UACC-62 melanoma
DLD-1 colon = test system: DLD-1 colon
DMS 114 small cell lung = test system: DMS 114 small cell lung
DMS 273 small cell lung = test system: DMS 273 small cell lung
KM20L2 colon = test system: KM20L2 colon
LXFL 529 NSCLC = test system: LXFL 529 NSCLC
M19-MEL melanoma = test system: M19-MEL melanoma
SNB-78 CNS = test system: SNB-78 CNS

Compound	TGI (COLO 205 colon)	TGI (DU-145 prostate)	TGI (HCT-15 colon)	TGI (LOX IMVI melanoma)	TGI (SK-MEL-28 melanoma)	TGI (UACC-62 melanoma)	TGI (DLD-1 colon)	TGI (DMS 114 small cell lung)	TGI (DMS 273 small cell lung)	TGI (KM20L2 colon)	TGI (LXFL 529 NSCLC)	TGI (M19-MEL melanoma)	TGI (SNB-78 CNS)
O=C(O)[C@@H]1CCS(=O)(=O)N1	> 100 µM	> 100 µM	> 100 µM	> 100 µM	> 100 µM	> 100 µM	–	–	–	–	–	–	–
Cc1ccnc2[nH]c3ccccc3c(=O)c12	59.1 µM	> 100 µM	> 100 µM	> 100 µM	47.5 µM	40 µM	–	–	–	–	–	–	–
CN=C1CC2c3cc(OC)c(OC)cc3CCN2C2=C1C(=O)CC(C)(C)C2 (configuration not stated)	> 100 µM	–	–	> 100 µM	> 100 µM	–	> 100 µM	> 100 µM	> 100 µM	> 100 µM	> 100 µM	> 100 µM	> 100 µM
COC(=O)C1=C(O)C(C(=O)OC)[C@]2(O)[C@H](C(=O)OC)[C@H]1C[C@@H](c1ccc(C(F)(F)F)cc1)[C@H]2C(=O)OC (some centres not stated)	11.5 µM	28.1 µM	> 100 µM	7.3 µM	35.4 µM	29 µM	–	–	–	–	–	–	–
Nc1nc(N)c2c3c(cnc2n1)CC(c1ccccc1)CC3 (configuration not stated)	> 100 µM	> 100 µM	> 100 µM	21.6 µM	> 100 µM	> 100 µM	–	–	–	–	–	–	–
CC(=O)c1[nH]c(NCc2ccccc2)c(C(=S)Nc2ccccc2)c1N	> 100 µM	> 100 µM	39.9 µM	32.8 µM	52 µM	32.5 µM	–	–	–	–	–	–	–
COc1cc(C2c3cc4c(cc3OC3(OC)COC(=O)C23)OCO4)cc(OC)c1OC(C)=O (configuration not stated)	> 49.3 µM	> 100 µM	> 100 µM	> 82.2 µM	> 100 µM	> 100 µM	–	–	–	–	–	–	–
CSc1nc(Nc2cccc(C(F)(F)F)c2)c2c(N)nn(C)c2n1	> 100 µM	> 100 µM	> 100 µM	> 100 µM	> 100 µM	> 100 µM	–	–	–	–	–	–	–
OC1C#CCSCC#C/C=C\1 (configuration not stated)	29.3 µM	> 100 µM	> 100 µM	> 100 µM	> 100 µM	> 100 µM	–	–	–	–	–	–	–
O=C1CCCC1CN1CCCC1 (configuration not stated)	8.74 µM	> 66.4 µM	5.89 µM	24.4 µM	27.7 µM	32.6 µM	–	–	–	–	–	–	–
CN(CC(=O)O)c1ncc2c(n1)CCCC2	> 100 µM	> 100 µM	> 100 µM	> 100 µM	> 100 µM	> 100 µM	–	–	–	–	–	–	–
O=C(/C=C/c1cc2ccccc2o1)N1CCN(c2ccccn2)CC1	> 100 µM	> 100 µM	> 100 µM	> 100 µM	> 100 µM	> 100 µM	–	–	–	–	–	–	–
Cc1[nH]nc(C(F)(F)F)c1N=NN1CCOCC1	11.9 µM	13.4 µM	25.8 µM	18.3 µM	32.7 µM	23.5 µM	–	–	–	–	–	–	–
